Data as given in patent publication US8846937B2, “Mono quaternary ammonium salts and methods for modulating neuronal nicotinic acetylcholine receptors” (University of Kentucky Research Foundation, priority 2006, dated 2014).
pKi: −log10 of the molar value.

How the values were obtained:
[1] = biological target: T1, Rat Striatal Nicotinic Receptors ([^3H]MLA binding) (Rattus norvegicus, UniProt Q05941); experiment: Inhibition of [^3H]methyllycaconitine (MLA) binding to brain membranes; conditions: for inhibition at 0.1 µM: % inhibition at 100 nM analog, 2.5 nM [^3H]MLA, nonspecific 1 μM MLA (footnote)
T1 construct: Whole brain, excluding cortex and cerebellum, was homogenized; from tissue; host or cells: rat brain membranes (whole brain excluding cortex and cerebellum)
T1 sequence (Q05941 23-502): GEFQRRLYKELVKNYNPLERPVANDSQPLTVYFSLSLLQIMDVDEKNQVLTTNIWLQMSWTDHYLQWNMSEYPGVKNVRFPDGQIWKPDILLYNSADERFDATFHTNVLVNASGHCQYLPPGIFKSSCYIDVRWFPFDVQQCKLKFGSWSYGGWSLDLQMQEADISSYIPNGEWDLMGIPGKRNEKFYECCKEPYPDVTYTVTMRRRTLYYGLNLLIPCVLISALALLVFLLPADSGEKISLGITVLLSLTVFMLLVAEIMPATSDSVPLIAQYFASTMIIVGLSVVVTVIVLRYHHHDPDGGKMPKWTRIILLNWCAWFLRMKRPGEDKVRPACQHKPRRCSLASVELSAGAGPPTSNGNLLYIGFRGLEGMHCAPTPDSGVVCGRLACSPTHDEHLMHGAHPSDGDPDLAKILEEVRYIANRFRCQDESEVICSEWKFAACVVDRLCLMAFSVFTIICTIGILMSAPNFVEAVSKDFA
Protocol: (§1) Test compounds of Formula (I), representing the mono quaternary nicotine analogs of the present invention, were evaluated to determine the effect of a test compound on nicotine-binding and methyllycaconitine-binding mediated by nicotine acetylcholine receptors.
Homogenate was centrifuged (25,000 g, 15 min, 4° C.). Pellets were resuspended in 20 volumes of buffer and incubated at 37° C., for 10 min, cooled to 4° C. and centrifuged (25,000 g, 15 min, 4° C.). Pellets were resuspended and centrifuged using the same conditions. […] Upon use, final pellets were resuspended in ˜20 volumes of assay buffer. […] A control sample absent test compounds of Formula (I) was also prepared. […] Incubations proceeded for 60 min at a room temperature using 96-well plates, and were terminated by harvesting on Unifilter-96 GF/B filter plates presoaked in 0.5% polyethylenimine, using a Packard FilterMate harvester. After washing 5 times with 350 μl ice-cold assay buffer, the filter plates were dried (60 min, 4° C.), bottom-sealed, and filled with Packard's MicroScint 20 cocktail (40 μl/well). After 60 min, filter plates were top-sealed, and levels of radioactivity were determined using a Packard TopCount. Protein concentrations were determined using the Bradford dye-binding procedure using bovine serum albumin as a standard protein. […]

[2] = tested on: nicotinic receptors, NIC-evoked [^3H]DA release from rat striatal slices; experiment: Inhibition of nicotine-evoked [^3H]dopamine release from superfused rat striatal slices; type: cell-based; conditions: 1 h, 100 nM analog superfused 60 minutes prior to NIC (10 μM)
Protocol: Rat striatal slices (500 μm thickness, 6-8 mg wet weight) were incubated for 30 minutes in Krebs buffer (118 mM NaCl, 4.7 mM KCl, 1.2 mM MgCl2, 1.0 mM NaH2PO4, 1.3 mM CaCl2, 11.1 mM glucose, 25 mM NaHCO3, 0.11 mM L-ascorbic acid, and 0.004 mM disodium EDTA at pH 7.4, and saturated with 95% O2/5% CO2) in a metabolic shaker at 34° C. Slices were rinsed with 15 mL of fresh buffer, and were incubated for an additional 30 minutes in fresh buffer containing 0.1 μM [^3H]dopamine (DA; 6 slices/3 mL). Subsequently, slices were rinsed with 15 mL of fresh buffer and transferred to a glass superfusion chamber. Slices were superfused (1.0 mL/min) for 60 minutes with Krebs buffer containing nomifensine (10 μM) and pargyline (10 μM), and maintained at 34° C., pH 7.4, with continual aeration (95% O2/5% CO2). Two five minute samples (5 mL each) were collected to determine basal outflow of [^3H]DA. The test compounds of Formula (I) were added to the superfusion buffer after the collection of the second sample, and were maintained in the buffer until 12 consecutive five minute samples were collected. Subsequently, S-(−)-nicotine (10 μM) was added to the buffer, and an additional 12 consecutive five minute samples were collected. At the end of the experiment, each slice was solubilized, and the [^3H]content of the tissue determined.
Radioactivity in the superfusate and tissue samples was determined by liquid scintillation spectroscopy. Fractional release of tritium collected in each sample was divided by the total tritium present in the tissue at the time of sample collection, and the fractional release of tritium collected was expressed as a percentage of total tritium. Basal [^3H]outflow was calculated from the average of the tritium collected in the two five minute samples just before addition of a test compound of Formula (I). The sum of the increase in collected tritium resulting from either exposure to a test compound of Formula (I), or exposure to S(−) nicotine in the absence and presence of a test compound of Formula (I) equaled total [^3H]overflow. [^3H]Overflow was calculated by subtracting the [^3H]outflow during an equivalent period of pre-stimulation from the values in samples collected during and after drug exposure. Inasmuch as the radio-labeled compounds were not separated and identified, the tritium collected in superfusate is referred to as either [^3H]outflow or [^3H]overflow, rather than as [^3H]DA. [^3H]Overflow primarily represents [^3H]DA in the presence of nomifensine and pargyline in the superfusion buffer.
The quaternary analogs of Formula (I) were also evaluated for their ability to inhibit NIC-evoked [^3H]DA release. In these experiments, the striatal slices were superfused for 60 minutes with 100 nM concentration of the quaternary analogs prior to NIC (10 μM) exposure. Antagonist activity was evaluated by comparing the NIC-evoked [^3H]overflow in the absence and presence of the analogs. The relative order of potency of the quaternary analogs of Formula (I) for inhibition of NIC-evoked [^3H]DA release from rat striatal slices is illustrated in Table 1.
^aData are % inhibition at 100 nM concentration of the mono quaternary analogs for at least 1-3 independent experiments; with the exception of when a Ki value in μM is provided, in which case a full concentration effect was evaluated. Specific binding in the [^3H]NIC binding assay is calculated as the difference between the total binding of 3 nM [^3H]NIC and nonspecific binding in the presence of 10 μM cold nicotine. Specific binding for the [^3H]MLA binding assay is calculated as the difference between the total binding of 2.5 nM [^3H]MLA to the receptors alone and its nonspecific binding in the presence of 1 μM cold MLA. Analog-induced inhibition of nicotine-evoked [^3H]DA release is calculated as a percent of that in the absence of the mono quaternary ammonium analog. ND indicates not determined.

[3] = biological target: T2, Rat Striatal Nicotinic Receptors ([^3H]NIC binding) (Rattus norvegicus, UniProt P09483+P12390); experiment: Inhibition of [^3H]nicotine binding to brain membranes; conditions: 3 nM [^3H]NIC; for inhibition at 0.1 µM: % inhibition at 100 nM analog, nonspecific 10 μM nicotine
T2 construct: Whole brain, excluding cortex and cerebellum, was homogenized; from tissue; host or cells: rat brain membranes (whole brain excluding cortex and cerebellum)
T2 sequence (P09483 31-630): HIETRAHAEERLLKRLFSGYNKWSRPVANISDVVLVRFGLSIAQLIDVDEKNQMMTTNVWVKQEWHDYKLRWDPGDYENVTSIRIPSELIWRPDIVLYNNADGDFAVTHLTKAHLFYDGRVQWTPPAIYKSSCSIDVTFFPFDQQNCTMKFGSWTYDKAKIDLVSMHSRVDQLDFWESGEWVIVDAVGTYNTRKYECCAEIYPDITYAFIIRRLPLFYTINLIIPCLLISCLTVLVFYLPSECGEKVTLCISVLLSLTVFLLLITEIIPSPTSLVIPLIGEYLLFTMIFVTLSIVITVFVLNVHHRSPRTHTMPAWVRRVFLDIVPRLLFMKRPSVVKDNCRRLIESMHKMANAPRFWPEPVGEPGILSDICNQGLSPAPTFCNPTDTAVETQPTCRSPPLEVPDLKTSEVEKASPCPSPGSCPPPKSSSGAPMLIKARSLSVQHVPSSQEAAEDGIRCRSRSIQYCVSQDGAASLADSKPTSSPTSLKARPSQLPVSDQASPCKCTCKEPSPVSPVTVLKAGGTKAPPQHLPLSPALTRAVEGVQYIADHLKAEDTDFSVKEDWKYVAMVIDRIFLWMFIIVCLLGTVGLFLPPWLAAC
T2 sequence (P12390 25-500): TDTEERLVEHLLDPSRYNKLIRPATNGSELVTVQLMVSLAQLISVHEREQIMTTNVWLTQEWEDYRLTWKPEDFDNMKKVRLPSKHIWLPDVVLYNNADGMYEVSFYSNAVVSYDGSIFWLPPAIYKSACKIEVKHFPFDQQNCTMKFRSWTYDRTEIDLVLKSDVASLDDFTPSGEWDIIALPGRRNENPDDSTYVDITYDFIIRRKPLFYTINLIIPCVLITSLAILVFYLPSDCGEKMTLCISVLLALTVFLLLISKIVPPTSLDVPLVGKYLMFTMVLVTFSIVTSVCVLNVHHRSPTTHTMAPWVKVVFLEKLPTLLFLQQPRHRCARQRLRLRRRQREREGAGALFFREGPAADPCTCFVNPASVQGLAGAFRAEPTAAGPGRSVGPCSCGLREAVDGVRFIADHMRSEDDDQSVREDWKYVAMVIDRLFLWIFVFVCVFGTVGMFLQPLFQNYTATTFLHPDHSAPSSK
Protocol: as §1
Homogenate was centrifuged (25,000 g, 15 min, 4° C.). Pellets were resuspended in 20 volumes of buffer and incubated at 37° C., for 10 min, cooled to 4° C. and centrifuged (25,000 g, 15 min, 4° C.). Pellets were resuspended and centrifuged using the same conditions. […] Upon use, final pellets were resuspended in ˜20 volumes of assay buffer. Samples (250 μl) contained 100-140 μg of membrane protein, 3 nM [^3H]nicotine or 3 nM [^3H]methyllycaconitine (MLA), and test compounds of Formula (I) (100 nM) in assay buffer containing 50 mM Tris. A control sample absent test compounds of Formula (I) was also prepared. In the [^3H]nicotine-binding assay and [^3H]MLA-binding assay, nonspecific-binding was determined in the presence of 10 μM nicotine and 10 μM MLA, respectively. Incubations proceeded for 60 min at a room temperature using 96-well plates, and were terminated by harvesting on Unifilter-96 GF/B filter plates presoaked in 0.5% polyethylenimine, using a Packard FilterMate harvester. After washing 5 times with 350 μl ice-cold assay buffer, the filter plates were dried (60 min, 4° C.), bottom-sealed, and filled with Packard's MicroScint 20 cocktail (40 μl/well). After 60 min, filter plates were top-sealed, and levels of radioactivity were determined using a Packard TopCount. Protein concentrations were determined using the Bradford dye-binding procedure using bovine serum albumin as a standard protein.
Specific binding in the [^3H]NIC binding assay is calculated as the difference between the total binding of 3 nM [^3H]NIC and nonspecific binding in the presence of 10 μM cold nicotine. […] Analog-induced inhibition of nicotine-evoked [^3H]DA release is calculated as a percent of that in the absence of the mono quaternary ammonium analog. ND indicates not determined.

Row | pKi ([1]; full concentration effect, 2.5 nM [^3H]MLA (footnote)) | pKi ([3]; full concentration effect) | SMILES | inhibition at 0.1 µM [1] [%] | inhibition at 0.1 µM [2] [%] | inhibition at 0.1 µM [3] [%]
1 | – | – | Cc1cccc[n+]1CCCCCCCCc1ccccc1 | 0 | 62 | 0
2 | – | – | CCCCc1ccc(CCCC[n+]2ccccc2C)cc1 | 0 | – | 0
3 | – | – | CCCCc1ccc(C#CCC[n+]2cccc(C)c2)cc1 | 0 | 11 | 0
4 | – | – | CCCCc1ccc(CCCC[n+]2cccc(C)c2)cc1 | 2 | 33 | 4
5 | – | – | Cc1ccc[n+](CCCCCCCCCCCCCc2cccnc2)c1 | 2 | 31 | 0
6 | – | – | CCCCc1ccc(C#CCC[n+]2ccc(C)cc2)cc1 | 3 | 11 | 6
7 | – | – | CCCCc1ccc(CCCC[n+]2ccc(C)cc2)cc1 | 0 | 58 | 5
8 | – | – | CCCCc1ccc(C#CCC[n+]2cccc(CC)c2)cc1 | 0 | – | 0
9 | 4.85 | < 4.00 | CCCCc1ccc(CCCC[n+]2ccc3c(c2)CCCC3)cc1 | – | – | –
10 | – | – | CCCCc1ccc(C#CCC[n+]2cccc(CCCO)c2)cc1 | 0 | – | 0
11 | – | – | CCCCc1ccc(CCCC[n+]2cccc(CCCO)c2)cc1 | 0 | 64 | 0
12 | – | – | CCCCc1ccc(CCCC[n+]2ccc(C)cc2C)cc1 | 0 | 19 | 6
13 | – | – | Cc1cc[n+](CCCCCCCCc2ccccc2)c(C)c1 | 9 | 14 | 0
14 | – | – | CCCCc1ccc(C#CCC[n+]2ccc(C)c(C)c2)cc1 | 10 | – | 0
15 | – | – | Cc1cc[n+](CCCCCCCCCCCCCc2cccnc2)cc1C | 0 | 20 | 3
16 | – | – | CCCCc1ccc(CCCC[n+]2ccc(C)c(C)c2)cc1 | 0 | – | 0
17 | – | – | CCCCc1ccc(C#CCC[n+]2cc(C)cc(C)c2)cc1 | 0 | – | 0
18 | – | – | CCCCc1ccc(CCCC[n+]2cc(C)cc(C)c2)cc1 | 0 | – | 0
19 | – | – | Cc1cc(C)c[n+](CCCCCCCCCCCCCc2cccnc2)c1 | 0 | 35 | 0
20 | – | – | Cc1cccc[n+]1CCCC#Cc1ccc(-c2ccccc2)cc1 | 7 | 45 | 2

Row | pKi ([1]; full concentration effect, 2.5 nM [^3H]MLA (footnote)) | pKi ([3]; full concentration effect) | SMILES | inhibition at 0.1 µM [1] [%] | inhibition at 0.1 µM [2] [%] | inhibition at 0.1 µM [3] [%]
21 | – | – | Cc1cccc[n+]1CCCCCc1ccc(-c2ccccc2)cc1 | – | 45 | –
22 | – | – | Cc1ccc[n+](CCCC#Cc2ccc(-c3ccccc3)cc2)c1 | 2 | 41 | 0
23 | – | – | Cc1ccc[n+](CCCCCc2ccc(-c3ccccc3)cc2)c1 | 7 | 55 | 4
24 | – | – | Cc1cc[n+](CCCCCc2ccc(-c3ccccc3)cc2)cc1 | – | 18 | –
25 | – | – | Cc1cc[n+](CCCC#Cc2ccc(-c3ccccc3)cc2)cc1 | 3 | 40 | 0
26 | – | – | Cc1cc(C)c[n+](CCCC#Cc2ccc(-c3ccccc3)cc2)c1 | 3 | 51 | 8
27 | – | – | Cc1cc(C)c[n+](CCCCCc2ccc(-c3ccccc3)cc2)c1 | – | 51 | –
28 | – | – | Cc1cc[n+](CCCC#Cc2ccc(-c3ccccc3)cc2)cc1C | 8 | 20 | 0
29 | – | – | Cc1cc[n+](CCCCCc2ccc(-c3ccccc3)cc2)cc1C | – | 38 | –
30 | – | – | Cc1cc[n+](CCCC#Cc2ccc(-c3ccccc3)cc2)c(C)c1 | 6 | 5 | 2
31 | – | – | Cc1cc[n+](CCCCCc2ccc(-c3ccccc3)cc2)c(C)c1 | – | 39 | –
32 | – | – | C(#Cc1ccc(-c2ccccc2)cc1)CCC[n+]1cccc2ccccc21 | 7 | 23 | 1
33 | – | – | c1ccc(-c2ccc(CCCCC[n+]3cccc4ccccc43)cc2)cc1 | – | 61 | –
34 | – | – | C(#Cc1ccc(-c2ccccc2)cc1)CCC[n+]1ccc2ccccc2c1 | 6 | – | 0
35 | – | – | c1ccc(-c2ccc(CCCCC[n+]3ccc4ccccc4c3)cc2)cc1 | 6 | – | 0
36 | – | – | CN1CCC[C@H]1c1ccc[n+](CCCC#Cc2ccc(-c3ccccc3)cc2)c1 | 6 | 47 | 20
37 | – | – | CN1CCC[C@H]1c1ccc[n+](CCCCCc2ccc(-c3ccccc3)cc2)c1 | – | 51 | –
38 | – | – | CCCCc1ccc[n+](CCCCCc2ccc(-c3ccccc3)cc2)c1 | – | 43 | –
39 | – | – | C(#Cc1ccc(-c2ccccc2)cc1)CCC[n+]1cccc(-c2ccccc2)c1 | 6 | – | 8
40 | – | – | c1ccc(-c2ccc(CCCCC[n+]3ccccc3)cc2)cc1 | – | 30 | –
